Measurements from US9241996B2, “Photochemical internalisation of kinase inhibitors” (PCI BIOTECH AS, priority 2008, dated 2016).
Like-named read-outs stand apart in the source and are kept apart here.

Experiments:
[1] = tested on: A-431 human skin carcinoma; assay: Growth inhibition (Coulter counting, survival fraction) after PDT with TPPS2a, AG1478 and the combination (Example 3); format: cell-based; settings: for synergy/antagonism value F: p=0.05
Method: The studies were performed using the EGFR positive cell line A-431 human skin carcinoma (ATCC, CRL 1555). The A-431 cells were subcultured two or three times a week in DMEM (Bio Whitaker Europe, Velviers, Belgium). Media were supplied with 10% fetal calf serum (FCS) (GIBCO BRL, Paisley, UK), 100 U/ml penicillin, 100 U/ml streptomycin (Sigma, St. Loice, MO) and 2 mM glutamine (Bio Whittaker, Velviers, Belgium). The cells were grown and incubated in 75 cm^2 flasks (Nunc, Roskilde, Denmark) at 37° C. in a humidified atmosphere containing 5% CO2.
(§1) A-431 cells were seeded out and left to fasten for 6 hrs, or longer as described for the different combination treatment regimes with Tyrphostin AG1478, before an 18 hour incubation with 0.1 ug/ml LumiTrans (TPPS2a, meso-tetraphenylporphine with two sulfonate groups on adjacent phenyl rings) (PCI Biotech AS, Oslo, Norway). The cells were then washed twice with drug free medium and chased in new drug free medium for 4 hrs to wash the TPPS2a off the plasma membrane. Cells were then exposed to blue light from LumiSource (PCT Biotech AS) consisting of 4 light tubes delivering light with λ=[…], maximum at 435 nm and irradiance=13.5 mW/cm^2 at different doses as indicated in the figures.
Growth inhibition measurements were carried out after incubation of the cells for 72 hrs with different concentrations of AG1478 directly after exposure to light. Cell counting was performed with an in-house made Coulter counter after trypsination and resuspension in PBS. Two parallels of each sample were made, and the experiments were reproduced twice at least.
For each experiment the survival fraction (SF) of cells was found by dividing the number of treated cells by the average number of untreated cells in the two parallels. The expected additive effect was computed as SFadd=SFPDT×SFTKI where SFPDT and SFTKI refers to the observed effect after PDT or TKI treatment alone. SFadd was then compared to the observed effect of the combined treatment, SFcomb, using the synergy/antagonism value F F=log SFadd/log SFComb=log SFTKI+log SFPDT−log SFcorab
Antagonistic effects would result in negative F values. Significant deviations of F from zero were established through t-tests.

EGFR = target: T1, EGFR (Homo sapiens, UniProt P00533); assay: Western blotting of total and phosphorylated EGFR after PDT, AG1478 and the combination; format: cell-based
T1 construct: time dependent effects on total and phosphorylated EGFR after PDT˜LD50, AG1478 (TKI)˜LD50 and the combination treatment in A-431 cells; endogenous in cells; host or cells: A-431 human skin carcinoma cells (ATCC, CRL 1555)
Method: as §1
At indicated times after light exposure the cell-medium was removed and cells were incubated for 2 minutes with 100 ng/ml EGF. Cells were then placed on ice and the sample preparation was performed as described before (Weyergang et al., 2007, Biochem. Pharmacol., 74, p226-235). The same amount of lysed cells from each sample, as measured by the absorption of nucleic acids at 260 nm, was subjected to gel electrophoresis on 12% SDS/polyacrylamide gels and blotted to Hybond-P PVDF membranes (Amersham Biosciences, Amersham Place, UK). Immunodetection was carried out using antibodies from Cell Signal Technology (Cell Signalling Technology Beverly, Mass.); EGFR antibody (#2232), Phospho-EGFR antibody (#2236), Anti-mouse IgG, HRP-linked Antibody (#7076) Anti-rabbit IgG, HRP-linked Antibody (#7074). ECL Plus Western blotting Detection Reagents, STORM and Image Quant from GE Healthcare (GE Healthcare, Amersham Place, UK) was used to detect protein bands on the membrane.

[2] = tested on: multi-drug resistant NCI-ADR-RES cancer cell line; assay: CellTiter-Blue cell survival after PCI (TPCS2a, LumiSource illumination) with TKI, NCI-ADR-RES; format: cell-based; settings: for IC50: Homo sapiens, NCI/ADR-RES, read-out: nilotinib dose needed to achieve 50% cell killing
Method: TPCS2a was diluted into growth medium at 0.4 μg/ml (NCI-H460) or 0.8 μg/ml (NCI-ADR-RES) and 25 μl was added to each test well (final assay concentrations 0.2 μg/ml and 0.4 μg/ml, respectively).
The plates were washed 6 times with 50 μl wash buffer using an EMBLA 384-well plate washer.
The plates were washed as before.

[3] = at typical therapeutic doses per patient per day; cited from earlier work
[4] = tested on: NCI-H460 human lung cancer cell line; assay: CellTiter-Blue cell survival after PCI (TPCS2a, LumiSource illumination) with TKI, NCI-H460; settings: for IC50: Homo sapiens, read-out: nilotinib dose needed to achieve 50% cell killing
[5] = tested on: A431 human epithelial carcinoma cell line; assay: Cell survival by Coulter Counter after TPCS2a photochemical treatment and imatinib (Example 1); format: cell-based
Method: Cells from the A431 human epithelial carcinoma cell line (75,000 cells/well, 1.5 mL/well) were seeded into 6-well plates (Nunc, Denmark), incubated for 5 hours, then 0.1 μg/mL TPCS2a was added and the cells were further incubated for 18 h (5% v/v CO2, 37° C. in DMEM medium with penicillin 100 U/mL, Glutamine 2 mM, Streptomycin 100 μg/mL). The cells were washed twice with medium (1 mL/well), incubated for 4 hours (37° C., 5% v/v CO2) in serum-containing medium and illuminated for 1, 2 or 4 minutes as shown in FIG. 2.
The cells were washed twice with Trypsin EDTA (200 μL/well) and incubated for 5 minutes (400 μL/well), then 1.5 mL medium was added and the mixture transferred to 10 mL tubes and centrifuged for 3 minutes at 1000 rpm. After removing the medium, 1 mL PBS (Phosphate Buffered Saline) was added and the solution mixed thoroughly. 750 μL was transferred to a beaker with 20 mL PBS and the amount of viable cells was determined with a Coulter Counter apparatus.

A431 cells = assay: Cell survival by MTT assay after TPCS2a photochemical treatment and imatinib (Example 2); format: cell-based, human; settings: imatinib up to 25 μM
Method: A431 cells (2500 cells/well, 100 μL/well) were seeded into 96-well plates (Nunc, Denmark) and incubated for 5 hours, then 0.1 μg/mL TPCS2a was added and incubated for 18 h (5% v/v CO2, 37° C., DMEM medium with penicillin 100 U/mL, Glutamine 2 mM, Streptomycin 100 μg/mL). […] After a further 72 hours incubation, cell survival was measured by the MTT assay.
The MTT method is based on reduction of a water-soluble tetrazolium salt (MTT) to a purple, insoluble formazan product by mitochondrial dehydrogenases present in living, metabolically active cells. 100 μL medium containing 0.25 μg MTT was added to the cells, followed by 1 h and 30 min of incubation (37° C., 5% v/v CO2). The resulting formazan crystals were dissolved by adding 100 μl DMSO (Sigma, Mo., USA) per well. The 96 well plate was read by a Multiscan EX micro plate reader (Labsystems, Finland) with a 570 nm band pass filter.

T1 sequence (P00533 25-1210): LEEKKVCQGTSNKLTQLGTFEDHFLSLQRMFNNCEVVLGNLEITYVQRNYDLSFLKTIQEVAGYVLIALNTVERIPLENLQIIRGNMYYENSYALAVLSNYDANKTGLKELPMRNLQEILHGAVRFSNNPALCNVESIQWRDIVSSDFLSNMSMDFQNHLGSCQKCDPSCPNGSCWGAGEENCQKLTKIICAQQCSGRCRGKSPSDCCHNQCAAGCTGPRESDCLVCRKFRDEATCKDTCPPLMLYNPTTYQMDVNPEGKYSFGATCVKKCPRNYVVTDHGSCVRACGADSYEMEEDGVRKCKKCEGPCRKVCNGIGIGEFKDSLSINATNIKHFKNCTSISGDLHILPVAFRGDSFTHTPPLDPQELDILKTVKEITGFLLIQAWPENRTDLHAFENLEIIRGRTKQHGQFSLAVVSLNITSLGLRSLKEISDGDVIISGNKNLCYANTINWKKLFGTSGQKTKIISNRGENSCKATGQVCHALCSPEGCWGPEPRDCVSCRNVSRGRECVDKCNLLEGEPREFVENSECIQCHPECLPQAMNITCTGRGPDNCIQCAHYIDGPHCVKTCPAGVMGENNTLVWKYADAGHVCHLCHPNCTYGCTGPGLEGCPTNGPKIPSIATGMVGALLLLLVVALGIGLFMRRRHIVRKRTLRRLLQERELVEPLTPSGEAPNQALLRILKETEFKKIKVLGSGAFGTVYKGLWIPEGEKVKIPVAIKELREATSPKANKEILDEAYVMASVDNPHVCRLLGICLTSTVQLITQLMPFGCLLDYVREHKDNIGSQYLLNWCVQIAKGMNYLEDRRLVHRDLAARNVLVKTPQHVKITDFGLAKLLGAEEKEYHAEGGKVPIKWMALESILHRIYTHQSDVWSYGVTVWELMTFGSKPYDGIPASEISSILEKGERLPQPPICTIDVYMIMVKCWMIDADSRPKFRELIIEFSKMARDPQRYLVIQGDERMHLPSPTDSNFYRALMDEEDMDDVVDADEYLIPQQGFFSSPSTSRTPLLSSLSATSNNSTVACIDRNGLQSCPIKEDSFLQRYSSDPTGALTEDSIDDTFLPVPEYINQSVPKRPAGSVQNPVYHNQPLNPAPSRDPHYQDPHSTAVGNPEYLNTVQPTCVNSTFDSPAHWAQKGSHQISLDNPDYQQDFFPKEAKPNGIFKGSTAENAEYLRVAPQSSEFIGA

For COc1cc2ncnc(Nc3cccc(Cl)c3)c2cc1OC [AG1478, Tyrphostin AG1478], the “synergy/antagonism value F” value ([1]; 4 uM AG1478 with PDT) was 0.18±0.09, the “synergy/antagonism value F” value ([1]; 5 uM AG1478 with PDT) was 0.17±0.08 and the “average survival fraction, TKI treatment only” value ([1]; AG1478 72 hrs, mean of three independent experiments (FIG. 6: 4 and 5 μM TKI)) was 0.41. For the same compound, the “average survival fraction, two treatments combined” value ([1]; AG1478 administrated directly after light exposure (PDT), mean of three independent experiments) was 0.16, the “synergy/antagonism value F, mean and st. error” value ([1]; AG1478 between 1 and 5 μM with PDT, p=0.005) was 0.15 ± 0.05 and the “synergy/antagonism parameter F of the experiments” value ([1]; AG1478 with PDT, three independent experiments) was “positive and statistically significant from 0”. For the same compound, the “calculated additive effect of the two treatments (SFadd)” value ([1]; SFPDT×SFTKI) was 0.24, the EGFR phosphorylation (EGFR; 4 μM AG1478 alone, 1-4 hrs, A-431 cells) was “strong attenuation of EGFR phosphorylation” and the “EGFR phosphorylation, combination therapy” value (EGFR; PDT (LD50) and AG1478, A-431 cells) was “same decrease in EGFR phosphorylation as that observed with the AG1478 treatment alone”.

In the case of O=S(=O)(O)c1ccc(-c2c3nc(c(-c4ccc(S(=O)(=O)O)cc4)c4ccc([nH]4)c(-c4ccccc4)c4nc(c(-c5ccccc5)c5ccc2[nH]5)C=C4)C=C3)cc1 [PDT, meso-tetraphenylporphine with two sulfonate groups on adjacent phenyl rings], the “average survival fraction, PDT treatment only” value ([1]; TPPS2a 0.1 ug/ml and blue light, mean of three independent experiments) is reported as 0.61, the “phosphorylated EGFR after PDT alone” value (EGFR; 1-4 hrs after PDT with LD50, A-431 cells) is reported as “No decrease in phosphorylated EGFR was observed” and the “phospho-EGFR after PDT alone” value (EGFR; measured 1 hour after PDT, doses reducing relative viability up to 10% of untreated, A-431 cells) is reported as “did not result in a pronounced reduction”.

For C#Cc1cccc(Nc2ncnc3cc(OCCOC)c(OCCOC)cc23)c1 [erlotinib], the “erlotinib dose at which 20% cell killing was achieved” value ([2]; 2 min illumination, TPCS2a 0.4 μg/ml) was “about 100 μM”, the “erlotinib dose at which 20% cell killing was achieved” value ([2]; 3 min illumination, TPCS2a 0.4 μg/ml) was “about 100 μM” and the “erlotinib dose at which 20% cell killing was achieved” value ([2]; 4 min illumination, TPCS2a 0.4 μg/ml) was “about 10 μM”. For the same compound, the typical blood concentrations [3] was 1 to 10 µM, the “erlotinib dose needed to induce 30% cell killing” value ([4]; 2 min illumination, TPCS2a 0.2 μg/ml) was 14 µM and the “erlotinib dose needed to induce 30% cell killing” value ([4]; 3 min illumination, TPCS2a 0.2 μg/ml) was 4 µM. The “potentiation of the effect by photochemical internalisation” value ([4]; erlotinib, NCI-H460, 3 min versus no illumination) was 10 times and the “erlotinib dose needed to induce 30% cell killing” value ([4]; no illumination) was 43 µM.

In the case of Cc1ccc(NC(=O)c2ccc(CN3CCN(C)CC3)cc2)cc1Nc1nccc(-c2cccnc2)n1 [imatinib], the “cytotoxicity versus photochemical treatment alone” value ([5]; imatinib 5×10^-6 M, TPCS2a 0.1 μg/mL, illuminated 1, 2 or 4 minutes, 72 hour incubation) is reported as “substantially higher cytotoxicity”, the “effect on cell survival” value ([5]; imatinib 5×10^-6 M, without illumination, TPCS2a-treated A431 cells, 72 hour incubation) is reported as “no significant effect on cell survival” and the “cytotoxicity of imatinib alone” value (A431 cells; 0 s illumination, 72 hours) is reported as “only modest cytotoxicity even at the highest dose”. For the same compound, the “cytotoxic effect with illumination” value (A431 cells; TPCS2a 0.1 μg/mL, 60 or 120 s illumination, corrected for photochemical treatment alone) was “illumination increased the cytotoxic effect of imatinib in a light dose-dependent manner”.

In the case of Cc1cn(-c2cc(NC(=O)c3ccc(C)c(Nc4nccc(-c5cccnc5)n4)c3)cc(C(F)(F)F)c2)cn1 [nilotinib], the IC50 ([2]; 0 h, 0 min illumination) is given as roughly 20 µM, the IC50 ([2]; 4 min, 4 min illumination, TPCS2a 0.4 μg/ml) is given as roughly 10 µM and the typical blood concentrations [3] is given as 1 to 5 µM. The IC50 ([4]; NCI-H460, 0 h) was 6 µM and the IC50 ([4]; NCI-H460, 5 min) was roughly 1.7 µM.

In the case of “tetraphenyl chlorin disulfonate [TPCS2a]”, the “cell survival, illumination alone” value ([5]; TPCS2a 0.1 μg/mL, illuminated 1, 2 or 4 minutes, no imatinib) is reported as “cell survival decreases with increasing illumination time in a dose-dependent manner”.
